ChEMBL document CHEMBL1133949, “Development of C-20 modified betulinic acid derivatives as antitumor agents” (Bioorg Med Chem Lett, 2001)

Columns and labels:
[1] = system: SK-MEL-2; assay: Cytotoxicity of compound against SK-MEL-2 using SRB assay; assay type: functional, cell-based, Homo sapiens
[2] = system: PC-3; assay: Cytotoxicity of compound against human prostate adenocarcinoma (PC3) using SRB assay; assay type: functional, cell-based, Prostate gland
[3] = system: UACC-257; assay: Cytotoxicity of compound against human melanoma cell lines (UACC-257) using MTT assay; assay type: functional
[4] = system: HCT-116; assay: Cytotoxicity of compound against human colon carcinoma (HCT116) using MTT assay; assay type: functional
[5] = system: SK-MEL-2; assay: Cytotoxicity of compound against human melanoma cell lines (SK-MEL-2) using MTT assay; assay type: functional
[6] = system: M14; assay: Cytotoxicity of compound against human melanoma cell lines (M14-MEL) using MTT assay; assay type: functional

Compound: CC(C)[C@@H]1CC[C@]2(C(=O)O)CC[C@]3(C)C(CCC4[C@@]5(C)CC[C@H](O)C(C)(C)C5CC[C@]43C)C12 (stereo not given in full) [DIHYDROBETULINIC ACID]
- EC50 [1]: > 2 µM
- EC50 [2]: > 2.2 µM

Compound: C=C(C)[C@@H]1CC[C@]2(C(=O)O)CC[C@]3(C)[C@H](CC[C@@H]4[C@@]5(C)CC[C@H](O)C(C)(C)[C@@H]5CC[C@]43C)[C@@H]12 [BETULINIC ACID]
- GI50 [3]: 1.5 µM
- GI50 [4]: 2.7 µM
- EC50 [1]: 2.2 µM
- EC50 [2]: 1.9 µM
- GI50 [5]: 3.2 µM
- GI50 [6]: 2.7 µM

Compound: CO/N=C1\CC[C@]2(C)[C@H]3CC[C@@H]4[C@H]5[C@H](C(C)C)CC[C@]5(C(=O)O)CC[C@@]4(C)[C@]3(C)CC[C@H]2C1(C)C
- EC50 [1]: > 21.2 µM
- EC50 [2]: > 16.4 µM

Compound: C=C(C)[C@@H]1CC[C@]2(C(=O)O)CC[C@]3(C)[C@H](CC[C@@H]4[C@@]5(C)CC[C@H](OC(C)=O)C(C)(C)[C@@H]5CC[C@]43C)[C@@H]12
- GI50 [3]: > 4.5 µM
- GI50 [4]: > 11.3 µM
- EC50 [1]: > 6.9 µM
- EC50 [2]: > 7.2 µM
- GI50 [5]: > 3.9 µM
- GI50 [6]: > 6.4 µM

Compound: C/C(=N/O)[C@@H]1CC[C@]2(C(=O)O)CC[C@]3(C)[C@H](CC[C@@H]4[C@@]5(C)CC[C@H](O)C(C)(C)[C@@H]5CC[C@]43C)[C@@H]12
- GI50 [3]: > 50 µM
- GI50 [4]: > 50 µM
- EC50 [1]: > 50 µM
- EC50 [2]: > 50 µM
- GI50 [5]: > 50 µM
- GI50 [6]: > 50 µM

Compound: CC(C)[C@@H]1CC[C@]2(C(=O)O)CC[C@]3(C)[C@H](CC[C@@H]4[C@@]5(C)CC/C(=N\O)C(C)(C)[C@@H]5CC[C@]43C)[C@@H]12
- EC50 [1]: > 3.4 µM
- EC50 [2]: > 3 µM

Compound: CC(O)[C@@H]1CC[C@]2(C(=O)O)CC[C@]3(C)[C@H](CC[C@@H]4[C@@]5(C)CC[C@H](O)C(C)(C)[C@@H]5CC[C@]43C)[C@@H]12 (stereo not given in full)
- GI50 [3]: > 50 µM
- GI50 [4]: > 50 µM
- EC50 [1]: > 50 µM
- EC50 [2]: > 50 µM
- GI50 [5]: > 50 µM
- GI50 [6]: > 50 µM

Compound: CC(=O)[C@@H]1CC[C@]2(C(=O)O)CC[C@]3(C)[C@H](CC[C@@H]4[C@@]5(C)CC[C@H](O)C(C)(C)[C@@H]5CC[C@]43C)[C@@H]12 [PLATANIC ACID]
- GI50 [3]: > 50 µM
- GI50 [4]: > 50 µM
- EC50 [1]: > 50 µM
- EC50 [2]: > 50 µM
- GI50 [5]: > 50 µM
- GI50 [6]: > 50 µM

Compound: C=C(CNO)[C@@H]1CC[C@]2(C(=O)O)CC[C@]3(C)[C@H](CC[C@@H]4[C@@]5(C)CC[C@H](O)C(C)(C)[C@@H]5CC[C@]43C)[C@@H]12
- EC50 [1]: > 50 µM
- EC50 [2]: > 50 µM

Compound: C=C(CO)[C@@H]1CC[C@]2(C(=O)O)CC[C@]3(C)[C@H](CC[C@@H]4[C@@]5(C)CC[C@H](O)C(C)(C)[C@@H]5CC[C@]43C)[C@@H]12
- GI50 [3]: > 50 µM
- GI50 [4]: > 9.8 µM
- EC50 [1]: > 9 µM
- EC50 [2]: > 8.4 µM
- GI50 [5]: > 9.3 µM
- GI50 [6]: > 16.2 µM

Compound: C=C(CNOC)[C@@H]1CC[C@]2(C(=O)O)CC[C@]3(C)[C@H](CC[C@@H]4[C@@]5(C)CC[C@H](O)C(C)(C)[C@@H]5CC[C@]43C)[C@@H]12
- EC50 [1]: > 50 µM
- EC50 [2]: > 50 µM

Compound: CC(C)[C@@H]1CC[C@]2(C(=O)O)CC[C@]3(C)[C@H](CC[C@@H]4[C@@]5(C)CCC(=O)C(C)(C)[C@@H]5CC[C@]43C)[C@@H]12 [DIHYDROBETULONIC ACID]
- EC50 [1]: > 1.6 µM
- EC50 [2]: > 1.3 µM

Compound: CO/N=C(/C)[C@@H]1CC[C@]2(C(=O)O)CC[C@]3(C)[C@H](CC[C@@H]4[C@@]5(C)CC[C@H](O)C(C)(C)[C@@H]5CC[C@]43C)[C@@H]12
- GI50 [3]: > 50 µM
- GI50 [4]: > 50 µM
- EC50 [1]: > 50 µM
- EC50 [2]: > 50 µM
- GI50 [5]: > 50 µM
- GI50 [6]: > 50 µM

Compound: C=C(COC)[C@@H]1CC[C@]2(C(=O)O)CC[C@]3(C)[C@H](CC[C@@H]4[C@@]5(C)CC[C@H](O)C(C)(C)[C@@H]5CC[C@]43C)[C@@H]12
- GI50 [3]: > 12.7 µM
- GI50 [4]: > 8.6 µM
- EC50 [1]: > 10.1 µM
- EC50 [2]: > 9.4 µM
- GI50 [5]: > 50 µM
- GI50 [6]: > 9 µM
